Results reported in ChEMBL document CHEMBL3608227, “Synthesis and anti-tubercular activity of 2-nitroimidazooxazines with modification at the C-7 position as PA-824 analogs” (Bioorg Med Chem Lett, 2015).
In brackets after ≈: the same amount, converted by molar mass.

Legend:
[1] = tested on: Mycobacterium tuberculosis; assay: Anti-tubercular activity against Mycobacterium tuberculosis H37Rv incubated at 37 degC by microscopy; type: functional
[2] = tested on: Mycobacterium tuberculosis; assay: Anti-tubercular activity against Mycobacterium tuberculosis; type: functional, organism-based
[3] = tested on: Mycobacterium tuberculosis; assay: Potency index, ratio of IC50 for PA-824 to IC50 for test compound against Mycobacterium tuberculosis; type: functional
[4] = tested on: Mycobacterium tuberculosis; assay: Potency index, ratio of IC50 for PA-824 to IC50 for test compound against Mycobacterium tuberculosis H37Rv; type: functional

Compound	MIC99 [1] [µM]	other results
O=C(Nc1ccc(Cl)cc1)OCC[C@H]1CCn2cc([N+](=O)[O-])nc2O1	0.195 (≈ 0.0715 µg/mL)	
O=C(Nc1ccc(-c2ccc(OC(F)(F)F)cc2)cc1)OCC[C@H]1CCn2cc([N+](=O)[O-])nc2O1	0.195 (≈ 0.096 µg/mL)	
O=[N+]([O-])c1cn2c(n1)O[C@H](CCOCc1ccc(OC(F)(F)F)cc1)CC2	0.39 (≈ 0.151 µg/mL)	
O=C(OCC[C@H]1CCn2cc([N+](=O)[O-])nc2O1)OCc1ccc(OC(F)(F)F)cc1	0.078 (≈ 0.0336 µg/mL)	
O=C(OCC[C@H]1CCn2cc([N+](=O)[O-])nc2O1)OCc1ccc(Cl)cc1	0.195 (≈ 0.0744 µg/mL)	
O=[N+]([O-])c1cn2c(n1)O[C@H](CCOc1ccc(OCc3ccccc3)cc1)CC2	0.078 (≈ 0.0308 µg/mL)	
O=[N+]([O-])c1cn2c(n1)OC[C@H](OCc1ccc(OC(F)(F)F)cc1)C2		IC50 [2]: 160 nM; Ratio IC50 [3]: 6
CC(C)(C)c1ccc(COCC[C@H]2CCn3cc([N+](=O)[O-])nc3O2)cc1	0.39 (≈ 0.14 µg/mL)	
O=C(OCC[C@H]1CCn2cc([N+](=O)[O-])nc2O1)OCc1ccc(C(F)(F)F)cc1	0.39 (≈ 0.162 µg/mL)	
O=[N+]([O-])c1cn2c(n1)O[C@@H](CCOCc1ccc(Cl)cc1)CC2	0.39 (≈ 0.132 µg/mL)	
O=[N+]([O-])c1cn2c(n1)O[C@@H](CCOc1ccc(-c3ccc(F)cc3)cc1)CC2	0.05 (≈ 0.0192 µg/mL)	
O=[N+]([O-])c1cn2c(n1)O[C@@H](CCOCc1ccc(-c3ccccc3)cc1)CC2	0.195 (≈ 0.074 µg/mL)	Ratio IC50 [4]: 2
O=[N+]([O-])c1cn2c(n1)O[C@@H](CCOc1ccc(C(F)(F)F)cc1)CC2	0.195 (≈ 0.0697 µg/mL)	
O=[N+]([O-])c1cn2c(n1)O[C@@H](CCOc1ccc(Cl)cc1)CC2	0.39 (≈ 0.126 µg/mL)	
O=[N+]([O-])c1cn2c(n1)O[C@@H](CCOc1ccc(OC(F)(F)F)cc1)CC2	0.098 (≈ 0.0366 µg/mL)	
O=[N+]([O-])c1cn2c(n1)O[C@@H](CCOc1ccc(-c3ccccc3)cc1)CC2	0.078 (≈ 0.0285 µg/mL)	
O=[N+]([O-])c1cn2c(n1)O[C@@H](CCOCc1ccc(Br)cc1)CC2	0.39 (≈ 0.149 µg/mL)	
O=C(OCC[C@H]1CCn2cc([N+](=O)[O-])nc2O1)OCc1ccccc1OC(F)(F)F	0.39 (≈ 0.168 µg/mL)	
O=[N+]([O-])c1cn2c(n1)O[C@@H](CCOc1ccc(OCc3ccccc3)cc1)CC2	0.078 (≈ 0.0308 µg/mL)	
O=C(OCC[C@H]1CCn2cc([N+](=O)[O-])nc2O1)OCc1cccc(OC(F)(F)F)c1	0.78 (≈ 0.336 µg/mL)	
O=[N+]([O-])c1cn2c(n1)O[C@@H](CCOCc1ccc(C(F)(F)F)cc1)CC2	0.195 (≈ 0.0724 µg/mL)	
O=[N+]([O-])c1cn2c(n1)O[C@@H](CCOc1ccccc1)CC2	3.12 (≈ 0.904 µg/mL)	
O=[N+]([O-])c1cn2c(n1)O[C@@H](CCOCc1ccc(OC(F)(F)F)cc1)CC2	0.078 (≈ 0.0302 µg/mL)	Ratio IC50 [4]: 5
O=C(OCC[C@@H]1CCn2cc([N+](=O)[O-])nc2O1)OCc1ccc(OC(F)(F)F)cc1	1.56 (≈ 0.673 µg/mL)	
O=[N+]([O-])c1cn2c(n1)OC[C@@H](OCc1ccc(OC(F)(F)F)cc1)C2 [PRETOMANID]	0.39 (≈ 0.14 µg/mL)	IC50 [2]: 900 nM
